Test [1] deals with CD8+ T cells (PBMCs of malaria patients). Put plainly: EXP1-specific CD8+ T cell response, ICS for IFNγ after in vitro culture. Conditions: patients HH-16, HH-18, HH-20 and HH-25; coincided with a CD4+ T cell response against the same peptide. In kind it is cell-based, human. As for the experimental part: Cryopreserved PBMCs were thawed and cultivated at 1–5 × 10^6 cells/ml for optimal results in 500 μl of R10 medium (RPMI 1640 medium with 10% FCS (Sigma Aldrich), 1% HEPES buffer and 1% Penicillin-Streptomycin). PBMCs were stimulated with EXP1 peptide pool 1 [EXP1 peptide 1-10 (EXP1-P01-10)], pool 2 (EXP1-P11-20) or pool 3 (EXP1-P21-31) (Table 2) at a final concentration of 10 μg/ml, together with 1 μg/ml of anti-CD28 and anti-CD49d antibodies [BD FastImmune™, clone: L293 (CD28) and clone: L25 (CD49d)] for 14 days. Medium with recombinant IL-2 (50 U/ml) was added when necessary. After 14 days, cells were re-stimulated with single EXP1-peptides (final concentration 10 μg/ml) and then assayed for interferon-γ (IFNγ) production by ELISPOT and intracellular cytokine staining (ICS) as previously described ([28]).
ICS was performed as previously described ([26], [28]). 5 × 10^5 PBMCs were stimulated with the corresponding EXP1 peptide at a final concentration of 10 μg/ml before blocking the secretion with 10 μg/ml Brefeldin A (Sigma Aldrich) 1 h after stimulation. […] Cells were then analyzed on a BD LSRFortessa (BD Bioscience). […]

Test [2] concerns the target HLA-DR DRB1*09:01 (Homo sapiens, UniProt P01903+P01911, A100R/A103E/D57H/D86V/F55Y/F60I/F76Y/I96F/K127E/L162R/M171V/P40D/Q125H/Q99R/R33Q/R42F/S133A/S66N/T210M/V115G/W38K/Y107V/Y59G/Y89S). Put plainly: In vitro HLA binding assay with purified HLA-DR molecules.
The target in test [3] is HLA-DR DRB1*01:01 (Homo sapiens, UniProt P01903+P01911, A100R/D57E/F55L/F60I/F76Y/I96L/L162R/M171V/P40L/Q125E/R42F/V115G/Y59C). Described as above. Conditions: purified HLA-DR molecule; high affinity binding = IC50 <1,000 nM. As for the experimental part:
(§1) In vitro binding assays with 14 of the peptides that elicited a response were performed using purified HLA-DR molecules, as previously described (Table 3) ([37]). MHC class II in silico binding predictions were defined, using the IEDB analysis resource ([38]–[40]), combining predictions from the ANN ([41], [42]) and SMM ([43]) algorithms (Supplementary Table 2A).
(§2) To test this hypothesis, we measured the in vitro capacity of the most frequently recognized EXP1 peptides to bind to a panel of 17 of the most prevalent human HLA-DR molecules, since the majority of HLA class II restricted CD4+ T cell responses are presented by these molecules ([49], [50]). Peptides with an IC50 of 1,000 nM or lower, a threshold previously found associated with the vast majority of HLA class II-restricted T cell epitopes, were considered binders to the respective DR molecule ([51]–[53]). […] These include EXP1-P14 which bound to five, EXP1-P15 to 13, EXP1-P16 to 10 and EXP1-P17 to nine different HLA molecules (Table 3).

Test [4] concerns the target HLA-DR DRB1*03:01 (Homo sapiens, UniProt P01903+P01911, A100K/A102G/A103R/A169T/F55Y/I96L/K41T/L162R/M171V/P40S/Q125H/Q178H/Q39Y/R42S/S66N/T106N/T262R/W38E/Y61H). The description is as above. The note with it: purified HLA-DR molecule; high affinity binding = IC50 <1,000 nM. The method, then: as §1, §2
The target in test [5] is HLA-DR DRB1*04:01 (Homo sapiens, UniProt P01903+P01911, A100K/A169T/F76Y/I96L/K127E/L162R/M171V/N62H/P40V/Q125Y/R42H/S133A/S149N/S66Y/V115G/V209L/W38E). The description is as above. The note with it: purified HLA-DR molecule; high affinity binding = IC50 <1,000 nM. The method, then:
as §1, §2

For test [6], the target named is HLA-DR DRB1*04:04 (Homo sapiens, UniProt P01903+P01911, A100R/A169T/F76Y/I96L/K127E/L162R/M171V/N62H/P40V/Q125Y/R42H/S133A/S149N/S66Y/V209L/W38E). Described as above. The note with it: purified HLA-DR molecule; high affinity binding = IC50 <1,000 nM. The method, then: as §1, §2
The target of test [7] is HLA-DR DRB1*04:05 (Homo sapiens, UniProt P01903+P01911, A100R/A169T/D86S/F76Y/I96L/K127E/L162R/M171V/N62H/P40V/Q125Y/R42H/S133A/S149N/S66Y/V115G/V209L/W38E). The test is described as above. Conditions: purified HLA-DR molecule; high affinity binding = IC50 <1,000 nM. The method, then: as §1, §2
Test [8] deals with HLA-DR DRB1*07:01 (Homo sapiens, UniProt P01903+P01911, A100R/A102G/A103Q/D57E/D86V/E43K/F76Y/K127E/L162R/M171V/P40G/Q125H/Q99D/R33Q/R42Y/R54Q/S133A/S66F/T210M/V115G/Y107V/Y59L/Y89S). The description is as above. The note with it: purified HLA-DR molecule; high affinity binding = IC50 <1,000 nM. The method, then: as §1, §2
The target of test [9] is HLA-DR DRB1*08:02 (Homo sapiens, UniProt P01903+P01911, A100R/A103L/A169T/F76Y/H45Y/I96F/K41T/L162R/M171V/P40S/Q125H/Q178H/Q39Y/Q99D/R218S/R42G/S66Y/V115G/W38E). The test is described as above. Conditions: purified HLA-DR molecule; high affinity binding = IC50 <1,000 nM. As for the experimental part:
as §1, §2

Test [10] deals with HLA-DR DRB1*10:01 (Homo sapiens, UniProt P01903+P01911, A100R/A169T/D57E/F55L/F60V/F69Y/F76Y/I96L/L162R/M171V/P40V/Q260P/Q39E/Q99R/R195Q/R42F/S149N/S66Y/T210M/V115G/V67A/W38E/Y59R/Y61H). Described as above. Conditions: purified HLA-DR molecule; high affinity binding = IC50 <1,000 nM. The method, then:
as §1, §2

Test [11] deals with HLA-DR DRB1*11:01 (Homo sapiens, UniProt P01903+P01911, A100R/A169T/A87E/I96F/K41T/L162R/M171V/P40S/Q125H/Q178H/Q39Y/Q99D/R42S/S66Y/T262R/V115G/W38E). The test is described as above. Conditions: purified HLA-DR molecule; high affinity binding = IC50 <1,000 nM. The method, then: as §1, §2
Test [12] addresses HLA-DR DRB1*13:02 (Homo sapiens, UniProt P01903+P01911, A100E/A169T/K41T/L162R/M171V/P40S/Q125H/Q178H/Q39Y/Q99D/R42S/S66N/T262R/V115G/W38E/Y61H). The description is as above. The note with it: purified HLA-DR molecule; high affinity binding = IC50 <1,000 nM. As for the experimental part: as §1, §2
For test [13], the target named is HLA-DR DRB1*15:01 (Homo sapiens, UniProt P01903+P01911). Described as above. Conditions: purified HLA-DR molecule; high affinity binding = IC50 <1,000 nM. The method, then:
as §1, §2

For test [14], the target named is HLA-DR DRB3*01:01 (Homo sapiens, UniProt P01903+P79483). The description is as above. Conditions: purified HLA-DR molecule; high affinity binding = IC50 <1,000 nM. As for the experimental part: as §1, §2
In test [15] the target is HLA-DR DRB3*02:02 (Homo sapiens, UniProt P01903+P79483, A212P/D57E/F66Y/L67A/R103Q/R218S/R40L/S89Y/T80R/V86D/Y55F/Y59H). The description is as above. The note with it: purified HLA-DR molecule; high affinity binding = IC50 <1,000 nM. As for the experimental part:
as §1, §2

Test [16] deals with HLA-DR DRB4*01:01 (Homo sapiens, UniProt P01903+P13762, G164S). The description is as above. Conditions: purified HLA-DR molecule; high affinity binding = IC50 <1,000 nM. The method, then: as §1, §2
For test [17], the target named is HLA-DR DRB5*01:01 (Homo sapiens, UniProt P01903+Q30154). Described as above. The note with it: purified HLA-DR molecule; high affinity binding = IC50 <1,000 nM. The method, then: as §1, §2
Test [18] has as its target HLA-DR DRB1*13:01 (Homo sapiens, UniProt P01903+P01911, A100E/A169T/K41T/L162R/M171V/P40S/Q125H/Q178H/Q39Y/Q99D/R42S/S66N/T262R/W38E/Y61H). The test is described as above. Conditions: purified HLA-DR molecule; high affinity binding = IC50 <1,000 nM. As for the experimental part:
as §1, §2

Ends that are not written are not given here.

Here are results for four sequences from publication PMC6993587, “Detection of EXP1-Specific CD4+ T Cell Responses Directed Against a Broad Range of Epitopes Including Two Promiscuous MHC Class II Binders During Acute Plasmodium falciparum Malaria” (Frontiers in Immunology, 2020).

Chain of HLA-DR DRB3*02:02 (P01903 26-254 limits assumed): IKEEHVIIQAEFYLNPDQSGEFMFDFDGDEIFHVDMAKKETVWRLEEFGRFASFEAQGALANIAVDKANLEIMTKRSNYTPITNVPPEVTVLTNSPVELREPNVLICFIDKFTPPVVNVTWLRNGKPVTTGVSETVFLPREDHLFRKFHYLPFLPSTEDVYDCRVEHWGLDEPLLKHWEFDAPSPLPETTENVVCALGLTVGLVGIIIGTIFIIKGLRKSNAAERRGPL
Chain of HLA-DR DRB3*02:02 (P79483 30-266 R40L/Y55F/D57E/Y59H/F66Y/L67A/T80R/V86D/S89Y/R103Q/A212P/R218S limits assumed): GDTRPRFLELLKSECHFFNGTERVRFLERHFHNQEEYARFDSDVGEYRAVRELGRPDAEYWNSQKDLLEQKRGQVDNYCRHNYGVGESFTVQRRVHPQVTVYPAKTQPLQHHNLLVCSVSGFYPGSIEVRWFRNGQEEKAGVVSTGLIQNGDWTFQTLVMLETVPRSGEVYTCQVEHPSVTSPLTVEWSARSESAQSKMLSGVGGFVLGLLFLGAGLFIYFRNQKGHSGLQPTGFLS
Chain of HLA-DR DRB1*11:01 (P01903 26-254 limits assumed, other chains not shown): as the sequence (P01903 26-254 limits assumed) above
Chain of HLA-DR DRB1*13:02 (P01903 26-254 limits assumed, other chains not shown): as the sequence (P01903 26-254 limits assumed) above
Chain of HLA-DR DRB1*03:01 (P01903 26-254, other chains not shown): as the sequence (P01903 26-254 limits assumed) above

Consider “KKGSGEPLIDVHDLI [EXP1-P09, overlapping peptide of P. falciparum EXP1, aa 40–54]”, for which the “CD8+ T cell response” value in [1] is recorded as “CD8+ T cell response”.
For the sequence RKSKYKLATSVLAGLL [EXP1-P15], the IC50 (usually the concentration that inhibits the measured activity by half) in test [2] came out at 3.9 nM; in test [3], 1.1 nM; in test [4], 5820 nM; in [5], 1.2 nM; in test [6], 48 nM; in test [7], 7.4 nM. The IC50 came to 1.4 nM in test [8]; 11900 nM in test [9]; 1.8 nM in [10]; 7 nM in test [11]; 39000 nM in [12]; 195 nM in [13]. The half-inhibitory concentration (IC50) was 47 nM in test [14], 2 nM in [15], 230 nM in [16] and 1 nM in test [17].
For VLAGLLGVVSTVLLGGV [EXP1-P17], the IC50 amounted to 12 nM in [2]; 23 nM in test [3]; 1260 nM in [5]; 47 nM in [6]; 824 nM in [7]; 4.6 nM in test [8]. Also, the IC50 in test [9] came to 49 nM; in [10], 418 nM; in test [11], 13700 nM; in [18], 14200 nM; in test [12], 33400 nM; in test [13] it was 5 nM. Besides, the IC50 in test [14] was 28500 nM; in [15], 14900 nM; in test [16], 2390 nM; in test [17], 238 nM.
Regarding GVGLVLYNTEKGRHP [EXP1-P20], the IC50 was 8940 nM in [3]; 4490 nM in test [4]; 26 nM in test [5]; 9.1 nM in test [6]; 2950 nM in [7]; 9.3 nM in test [9]. For the same sequence, the IC50 in test [10] turned out to be 7970 nM; in test [11] it was 183 nM; in [18], 122 nM; in test [12], 17100 nM; in test [13], 24 nM; in [15] it was 4990 nM. In addition, the concentration for half-maximal inhibition (IC50) in test [16] was 81 nM; in [17], 539 nM.
